Columns and labels:
[1] = target: apolipoprotein(a), [apo(a)], apolipoproteinB-100, [apoB-100], coupling reaction that generates Lp(a) (Homo sapiens, UniProt P04114+P08519); experiment: LPABC screen: lipoprotein(a) biochemical coupling assay, Lp(a) content by ELISA; conditions: recombinant apo(a) 17-kringle (293 cell media) + HepG2 conditioned media, 67 minutes, 37° C., 0.3 to 50 μM compound; read-out: Lp ABC IC50
Procedure, shortened: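 Conditioned medium from 293 cells stably expressing 17-kringle apo(a), diluted 1:3 in PBS and prewarmed 10 min at 37 °C, mixed with compound (added as 0.3–50 μM PBS solution) then 1:3-diluted HepG2 conditioned medium as apoB-100 source. Incubated 67 min at 37 °C; Lp(a) formed quantified by ELISA.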

[2] = system: Lp(a) production in HepG2^K17 cells; experiment: LPA3 screen: inhibition of Lp(a) production in transfected HepG2 cells, Lp(a) in media by ELISA; assay type: cell-based; conditions: Homo sapiens, 8 hours, 0.3 to 50 μM compound, Lp(a) normalized for total protein, read-out: Lp A3 IC50
Procedure, shortened: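 HepG2 cells stably expressing apo(a) 17-kringle construct, seeded overnight, then exposed to 0.3 to 50 μM compound for 8 h at 37 °C. Lp(a) secreted into media measured by ELISA and normalized to total cellular protein.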

Row | IC50 [1] | SMILES | IC50 [2]
1 | > 50 µM | O=C(c1ccccc1SCc1ccccc1)N(Cc1ccccc1-c1ccccc1)c1ccc(Cl)cc1 [Example 132, 2-Benzylsulfanyl-N-biphenyl-2-ylmethyl-N-(4-chloro-phenyl)-benzamide] | > 74 µM
2 | > 50 µM | CCCSc1ccccc1C(=O)N(Cc1ccccc1-c1ccccc1)c1ccc(OC)c(OC)c1 [Example 133, N-Biphenyl-2-ylmethyl-N-(3,4-dimethoxy-phenyl)-2-propylsulfanyl-benzamide] | 16.7 µM
3 | > 50 µM | COc1ccc(N(Cc2ccccc2-c2ccccc2)C(=O)c2ccccc2SC)cc1OC [Example 134, N-Biphenyl-2-ylmethyl-N-(3,4-dimethoxy-phenyl)-2-methylsulfanyl-benzamide] | 12.9 µM
4 | > 50 µM | COc1ccc(N(Cc2ccccc2-c2ccccc2)C(=O)c2ccccc2SC(C)C)cc1OC [Example 135, N-Biphenyl-2-ylmethyl-N-(3,4-dimethoxy-phenyl)-2-isopropylsulfanyl-benzamide] | 21.9 µM
5 | > 50 µM | COc1ccc(N(Cc2ccccc2-c2ccccc2)C(=O)c2cccc(Sc3ccccc3)c2)cc1OC [Example 136, N-Biphenyl-2-ylmethyl-N-(3,4-dimethoxy-phenyl)-3-phenylsulfanyl-benzamide] | 33.8 µM
6 | > 50 µM | COc1ccc(N(Cc2ccccc2-c2ccccc2)C(=O)c2ccccc2SCc2ccccc2)cc1OC [Example 137, 2-Benzylsulfanyl-N-biphenyl-2-ylmethyl-N-(3,4-dimethoxy-phenyl)-benzamide] | 9.8 µM
7 | > 15 µM | CCC[S+]([O-])c1ccccc1C(=O)N(Cc1ccccc1-c1ccccc1)c1ccc(OC)cc1 (stereo not shown) [Example 138, N-Biphenyl-2-ylmethyl-N-(4-methoxy-phenyl)-2-(propane-1-sulfinyl)-benzamide] | 7 µM
8 | > 15 µM | COc1ccc(N(Cc2ccccc2-c2ccccc2)C(=O)c2ccccc2[S+]([O-])C(C)C)cc1 (stereo not shown) [Example 139, N-Biphenyl-2-ylmethyl-N-(4-methoxy-phenyl)-2-(propane-2-sulfinyl)-benzamide] | 3.5 µM
9 | > 15 µM | O=C(c1ccccc1[S+]([O-])c1ccccc1)N(Cc1ccccc1-c1ccccc1)c1ccc(Cl)cc1 (stereo not shown) [Example 140, 2-Benzenesulfinyl-N-biphenyl-2-ylmethyl-N-(4-chloro-phenyl)-benzamide] | 24.9 µM
10 | > 50 µM | CCC[S+]([O-])c1ccccc1C(=O)N(Cc1ccccc1-c1ccccc1)c1ccc(OC)c(OC)c1 (stereo not shown) [Example 141, N-Biphenyl-2-ylmethyl-N-(3,4-dimethoxy-phenyl)-2-(propane-1-sulfinyl)-benzamide] | 6 µM
11 | > 50 µM | COc1ccc(N(Cc2ccccc2-c2ccccc2)C(=O)c2ccccc2[S+]([O-])C(C)C)cc1OC (stereo not shown) [Example 142, N-Biphenyl-2-ylmethyl-N-(3,4-dimethoxy-phenyl)-2-(propane-2-sulfinyl)-benzamide] | 7 µM

— patent US6780883B2, “Amide inhibitors of microsomal triglyceride transfer protein” (Warner-Lambert Company, priority 1998, dated 2004)
